The target in assay [1] is T1, Muscarinic acetylcholine receptor M2 (Homo sapiens, UniProt P08172).
T1 sequence (P08172 whole entry): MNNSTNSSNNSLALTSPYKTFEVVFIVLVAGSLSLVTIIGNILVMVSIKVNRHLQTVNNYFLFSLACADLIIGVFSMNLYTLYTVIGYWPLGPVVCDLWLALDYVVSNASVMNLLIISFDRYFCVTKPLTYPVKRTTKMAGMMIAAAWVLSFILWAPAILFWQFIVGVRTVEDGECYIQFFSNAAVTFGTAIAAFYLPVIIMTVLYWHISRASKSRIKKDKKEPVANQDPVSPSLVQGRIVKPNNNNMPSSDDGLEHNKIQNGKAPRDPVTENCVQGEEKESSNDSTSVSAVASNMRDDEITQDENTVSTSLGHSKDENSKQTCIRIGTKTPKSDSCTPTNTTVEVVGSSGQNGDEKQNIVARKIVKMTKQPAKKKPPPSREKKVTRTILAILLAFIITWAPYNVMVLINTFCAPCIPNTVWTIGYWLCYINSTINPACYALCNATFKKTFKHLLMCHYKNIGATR
The format is functional, cell-based.

The target of assay [2] is T2, Alpha-2A adrenergic receptor (Homo sapiens, UniProt P08913).
T2 sequence (P08913 whole entry): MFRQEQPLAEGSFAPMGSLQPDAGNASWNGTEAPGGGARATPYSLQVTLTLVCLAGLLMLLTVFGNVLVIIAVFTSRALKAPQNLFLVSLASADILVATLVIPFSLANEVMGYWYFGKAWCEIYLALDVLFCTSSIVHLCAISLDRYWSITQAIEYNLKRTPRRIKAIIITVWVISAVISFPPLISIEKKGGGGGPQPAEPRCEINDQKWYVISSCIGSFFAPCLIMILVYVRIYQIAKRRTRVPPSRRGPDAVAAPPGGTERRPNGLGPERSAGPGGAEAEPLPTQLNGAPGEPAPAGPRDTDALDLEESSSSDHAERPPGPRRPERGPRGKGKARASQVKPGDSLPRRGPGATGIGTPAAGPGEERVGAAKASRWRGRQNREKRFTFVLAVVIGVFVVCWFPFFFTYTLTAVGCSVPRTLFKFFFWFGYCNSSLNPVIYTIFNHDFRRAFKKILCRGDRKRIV
Type of assay: functional, cell-based.

Assay [3] has as its target 3',5'-cyclic-AMP phosphodiesterase 4D (Homo sapiens, UniProt Q08499). Type of assay: functional.
The target of assay [4] is T3, Amine oxidase [flavin-containing] A (Homo sapiens, UniProt P21397).
T3 sequence (P21397 whole entry): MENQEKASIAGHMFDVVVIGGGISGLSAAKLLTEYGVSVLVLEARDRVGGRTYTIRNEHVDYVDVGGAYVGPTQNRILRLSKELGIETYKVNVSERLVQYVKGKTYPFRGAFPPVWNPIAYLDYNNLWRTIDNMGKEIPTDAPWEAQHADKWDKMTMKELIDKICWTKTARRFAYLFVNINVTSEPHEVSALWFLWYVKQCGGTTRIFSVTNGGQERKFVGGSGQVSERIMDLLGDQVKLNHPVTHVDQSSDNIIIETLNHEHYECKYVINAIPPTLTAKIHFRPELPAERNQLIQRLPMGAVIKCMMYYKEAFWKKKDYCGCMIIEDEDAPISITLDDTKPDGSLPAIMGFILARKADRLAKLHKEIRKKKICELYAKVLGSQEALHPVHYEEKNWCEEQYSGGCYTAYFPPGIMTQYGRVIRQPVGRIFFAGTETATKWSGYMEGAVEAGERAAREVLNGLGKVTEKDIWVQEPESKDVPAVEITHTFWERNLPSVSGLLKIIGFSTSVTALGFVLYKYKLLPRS
The format is functional.

The target in assay [5] is T1, Muscarinic acetylcholine receptor M2.
Assay [6] concerns the target Neuronal acetylcholine receptor subunit alpha-4 (Homo sapiens, UniProt P43681).
In assay [7] the target is Voltage-gated inwardly rectifying potassium channel KCNH2 (Homo sapiens, UniProt Q12809). The format is functional. To be noted: read-out: AC50.
The target in a further assay is T4, Adenosine receptor A3 (Homo sapiens, UniProt P0DMS8).
T4 sequence (P0DMS8 whole entry): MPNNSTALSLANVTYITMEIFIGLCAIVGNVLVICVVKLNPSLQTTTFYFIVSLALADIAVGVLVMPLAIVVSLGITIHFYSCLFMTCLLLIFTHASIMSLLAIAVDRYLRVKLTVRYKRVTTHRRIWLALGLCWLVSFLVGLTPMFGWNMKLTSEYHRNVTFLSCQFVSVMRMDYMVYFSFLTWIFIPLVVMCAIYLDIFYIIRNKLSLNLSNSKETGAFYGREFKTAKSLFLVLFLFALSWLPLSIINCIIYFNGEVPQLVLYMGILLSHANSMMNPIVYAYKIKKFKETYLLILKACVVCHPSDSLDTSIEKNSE

The next assay has as its target Motilin receptor (Homo sapiens, UniProt O43193).
A further assay deals with D(1A) dopamine receptor (Homo sapiens, UniProt P21728). The format is functional, cell-based.
In assay [8] the target is Delta-type opioid receptor (Homo sapiens, UniProt P41143).
In a further assay the target is T5, Adenosine receptor A1 (Homo sapiens, UniProt P30542).
T5 sequence (P30542 whole entry): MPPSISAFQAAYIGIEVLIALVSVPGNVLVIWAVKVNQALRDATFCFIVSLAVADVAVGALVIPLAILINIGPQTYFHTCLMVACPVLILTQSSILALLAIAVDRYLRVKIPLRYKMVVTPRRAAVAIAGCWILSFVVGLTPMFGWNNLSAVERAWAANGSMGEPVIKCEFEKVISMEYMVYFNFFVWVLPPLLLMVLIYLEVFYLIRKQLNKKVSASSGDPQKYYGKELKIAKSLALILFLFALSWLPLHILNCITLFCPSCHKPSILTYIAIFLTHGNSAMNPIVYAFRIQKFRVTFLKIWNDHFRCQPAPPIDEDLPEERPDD
Further: assay procedure not described here.

Chain of Delta-type opioid receptor (P41143 whole entry): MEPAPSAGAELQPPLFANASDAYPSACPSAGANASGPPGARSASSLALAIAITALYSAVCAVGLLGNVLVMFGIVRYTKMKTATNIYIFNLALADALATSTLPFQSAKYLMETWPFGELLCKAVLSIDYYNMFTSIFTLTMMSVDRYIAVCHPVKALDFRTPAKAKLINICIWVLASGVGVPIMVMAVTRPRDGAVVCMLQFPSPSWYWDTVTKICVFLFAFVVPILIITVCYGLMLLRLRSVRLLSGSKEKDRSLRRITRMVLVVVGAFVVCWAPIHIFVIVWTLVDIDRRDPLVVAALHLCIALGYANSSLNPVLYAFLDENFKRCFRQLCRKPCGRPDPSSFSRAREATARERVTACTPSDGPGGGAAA
Chain of 3',5'-cyclic-AMP phosphodiesterase 4D (Q08499 whole entry): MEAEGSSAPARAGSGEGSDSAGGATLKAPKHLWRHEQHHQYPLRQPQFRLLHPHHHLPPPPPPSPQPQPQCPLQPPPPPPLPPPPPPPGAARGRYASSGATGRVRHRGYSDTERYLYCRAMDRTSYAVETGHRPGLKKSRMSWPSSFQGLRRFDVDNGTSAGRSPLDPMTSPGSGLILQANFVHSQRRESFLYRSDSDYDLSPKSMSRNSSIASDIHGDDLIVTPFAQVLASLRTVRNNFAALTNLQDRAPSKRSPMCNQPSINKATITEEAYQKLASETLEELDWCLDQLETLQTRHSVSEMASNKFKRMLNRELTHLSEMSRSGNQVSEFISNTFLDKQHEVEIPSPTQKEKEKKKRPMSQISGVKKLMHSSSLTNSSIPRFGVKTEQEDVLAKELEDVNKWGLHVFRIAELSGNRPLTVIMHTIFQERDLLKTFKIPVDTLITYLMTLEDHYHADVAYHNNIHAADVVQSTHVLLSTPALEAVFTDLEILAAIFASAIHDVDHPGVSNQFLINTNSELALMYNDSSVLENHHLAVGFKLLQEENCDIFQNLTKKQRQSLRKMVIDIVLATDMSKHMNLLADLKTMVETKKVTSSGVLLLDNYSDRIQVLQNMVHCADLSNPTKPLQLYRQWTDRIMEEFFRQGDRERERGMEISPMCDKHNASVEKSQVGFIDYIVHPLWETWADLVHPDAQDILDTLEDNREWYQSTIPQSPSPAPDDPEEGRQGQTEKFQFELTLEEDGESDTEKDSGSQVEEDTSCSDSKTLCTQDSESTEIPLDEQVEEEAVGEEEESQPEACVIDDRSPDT
Chain of Neuronal acetylcholine receptor subunit alpha-4 (P43681 whole entry): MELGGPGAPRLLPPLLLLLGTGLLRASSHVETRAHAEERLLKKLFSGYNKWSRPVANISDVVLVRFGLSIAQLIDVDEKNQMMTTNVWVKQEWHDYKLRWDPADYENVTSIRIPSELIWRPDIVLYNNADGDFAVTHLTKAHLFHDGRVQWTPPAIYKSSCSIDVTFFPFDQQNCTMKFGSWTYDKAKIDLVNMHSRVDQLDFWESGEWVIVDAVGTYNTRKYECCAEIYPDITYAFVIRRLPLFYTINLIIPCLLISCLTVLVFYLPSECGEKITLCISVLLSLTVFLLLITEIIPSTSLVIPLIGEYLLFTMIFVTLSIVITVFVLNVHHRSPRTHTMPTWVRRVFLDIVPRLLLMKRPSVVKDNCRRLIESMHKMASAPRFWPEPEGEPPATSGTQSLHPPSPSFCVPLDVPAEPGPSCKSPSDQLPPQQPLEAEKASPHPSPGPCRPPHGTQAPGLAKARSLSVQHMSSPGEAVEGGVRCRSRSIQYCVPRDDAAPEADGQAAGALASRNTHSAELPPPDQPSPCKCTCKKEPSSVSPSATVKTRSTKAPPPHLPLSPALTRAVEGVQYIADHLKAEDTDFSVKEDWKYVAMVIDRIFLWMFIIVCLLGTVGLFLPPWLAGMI
Chain of Motilin receptor (O43193 whole entry): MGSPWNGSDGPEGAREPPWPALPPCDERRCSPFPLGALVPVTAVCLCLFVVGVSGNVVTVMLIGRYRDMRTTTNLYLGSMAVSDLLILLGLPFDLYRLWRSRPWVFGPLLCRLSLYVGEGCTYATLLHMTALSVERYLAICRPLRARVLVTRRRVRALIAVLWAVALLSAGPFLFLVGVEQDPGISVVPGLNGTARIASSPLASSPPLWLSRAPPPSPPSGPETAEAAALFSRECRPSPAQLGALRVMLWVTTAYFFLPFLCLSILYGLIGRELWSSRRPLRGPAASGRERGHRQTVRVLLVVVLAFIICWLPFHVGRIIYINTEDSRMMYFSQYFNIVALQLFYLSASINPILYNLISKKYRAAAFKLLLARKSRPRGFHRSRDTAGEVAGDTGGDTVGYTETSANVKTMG
Chain of Voltage-gated inwardly rectifying potassium channel KCNH2 (Q12809 whole entry): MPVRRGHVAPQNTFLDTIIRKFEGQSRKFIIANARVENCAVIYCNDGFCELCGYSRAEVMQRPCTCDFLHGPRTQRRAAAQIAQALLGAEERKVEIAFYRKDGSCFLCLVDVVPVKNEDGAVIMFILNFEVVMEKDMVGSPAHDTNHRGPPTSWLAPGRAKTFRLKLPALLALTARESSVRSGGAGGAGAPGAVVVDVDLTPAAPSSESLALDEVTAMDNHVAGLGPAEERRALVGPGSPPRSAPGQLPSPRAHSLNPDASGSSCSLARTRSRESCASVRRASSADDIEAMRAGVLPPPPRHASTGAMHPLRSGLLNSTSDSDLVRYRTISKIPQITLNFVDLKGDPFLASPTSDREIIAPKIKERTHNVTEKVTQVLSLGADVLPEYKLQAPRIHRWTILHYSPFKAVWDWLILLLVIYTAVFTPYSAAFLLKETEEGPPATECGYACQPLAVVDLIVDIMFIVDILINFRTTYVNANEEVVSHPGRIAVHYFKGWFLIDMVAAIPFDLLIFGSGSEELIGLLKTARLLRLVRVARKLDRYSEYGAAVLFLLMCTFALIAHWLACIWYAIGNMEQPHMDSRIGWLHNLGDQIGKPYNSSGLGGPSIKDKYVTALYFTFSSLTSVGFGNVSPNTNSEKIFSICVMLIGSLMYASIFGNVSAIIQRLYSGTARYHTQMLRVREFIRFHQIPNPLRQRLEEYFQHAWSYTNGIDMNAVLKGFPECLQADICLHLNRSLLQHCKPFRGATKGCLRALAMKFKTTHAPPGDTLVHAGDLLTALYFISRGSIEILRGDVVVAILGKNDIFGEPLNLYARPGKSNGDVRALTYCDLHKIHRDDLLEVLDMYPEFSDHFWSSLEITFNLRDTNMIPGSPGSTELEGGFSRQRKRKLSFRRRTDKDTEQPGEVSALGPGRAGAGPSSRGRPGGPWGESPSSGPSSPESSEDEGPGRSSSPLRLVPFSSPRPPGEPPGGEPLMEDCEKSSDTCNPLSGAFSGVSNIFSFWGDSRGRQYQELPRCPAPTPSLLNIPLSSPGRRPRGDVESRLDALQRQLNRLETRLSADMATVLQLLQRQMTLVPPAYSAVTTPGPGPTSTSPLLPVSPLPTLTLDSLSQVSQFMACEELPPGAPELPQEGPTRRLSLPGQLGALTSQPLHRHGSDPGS
Chain of D(1A) dopamine receptor (P21728 whole entry): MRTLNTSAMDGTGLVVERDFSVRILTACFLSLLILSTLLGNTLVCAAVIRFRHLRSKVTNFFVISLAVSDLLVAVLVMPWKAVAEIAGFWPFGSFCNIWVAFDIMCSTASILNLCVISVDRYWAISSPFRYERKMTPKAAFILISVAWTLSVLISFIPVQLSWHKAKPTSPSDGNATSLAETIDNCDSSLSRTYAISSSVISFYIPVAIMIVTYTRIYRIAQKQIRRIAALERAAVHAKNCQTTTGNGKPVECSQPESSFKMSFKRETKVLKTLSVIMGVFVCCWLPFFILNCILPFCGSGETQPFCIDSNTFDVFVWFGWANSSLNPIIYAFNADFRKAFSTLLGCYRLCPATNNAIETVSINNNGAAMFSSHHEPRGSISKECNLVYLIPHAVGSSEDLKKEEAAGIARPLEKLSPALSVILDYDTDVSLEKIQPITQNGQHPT

In the case of `Cc1cn([C@H]2C[C@H](N=[N+]=[N-])[C@@H](CO)O2)c(=O)[nH]c1=O` [ZIDOVUDINE], the AC50 in assay [1] was over 10 µM; in assay [2] it was over 10 µM; in assay [3], over 30 µM; in [4], over 10 µM; in assay [5], over 30 µM; in assay [6], over 10 µM. Further, the AC50 is over 30 µM in assay [7]; over 30 µM at Adenosine receptor A3; over 10 µM on Motilin receptor; over 10 µM at D(1A) dopamine receptor; over 30 µM in [8]; over 30 µM at Adenosine receptor A1.

What is called AC50 is the midpoint of the concentration-response curve, whichever way the signal moves.

These data come from ChEMBL document CHEMBL5291721, “A preclinical secondary pharmacology resource illuminates target-adverse drug reaction associations of marketed drugs” (Nat Commun, 2023).
